According to ChEMBL document CHEMBL4354830, “Discovery of Benzo[cd]indol-2(1H)-ones and Pyrrolo[4,3,2-de]quinolin-2(1H)-ones as Bromodomain and Extra-Terminal Domain (BET) Inhibitors with Selectivity for the First Bromodomain with Potential High Efficiency against Acute Gouty Arthritis” (J Med Chem, 2019):

target: T1, Bromodomain-containing protein 4 (Homo sapiens, UniProt O60885); experiment: Displacement of tetra-acetylated histone H4 peptide (1-21) from recombinant human N-terminal His-tagged BRD4 BD1 (44 to 170 residues) expressed in Escherichia coli assessed as protein activity at 2 uM incubated for 30 mins followed by further incubation with tetra-acetylated histone H4 peptide (1-21) for 30 mins by Alphascreen assay; details: not given

Row | Compound | Activity [%]
1 | CN1C(=O)c2cccc3c(NS(=O)(=O)c4c(Cl)cccc4Cl)ccc1c23 | 91.1
2 | CN1C(=O)c2cc(-c3ccoc3)cc3c(NS(=O)(=O)c4ccc(Cl)cc4)ccc1c23 | 56.6
3 | COc1ccccc1S(=O)(=O)N(C)c1ccc2c3c(cccc13)C(=O)N2C | 90.4
4 | COc1ccc(Cl)cc1S(=O)(=O)Nc1ccc2c3c(cc(-c4cnn(C5CC5)c4)cc13)C(=O)N2C | 64.9
5 | CN1C(=O)c2cc(-c3cnn(C4CC4)c3)cc3c(NS(=O)(=O)c4ccc(Cl)cc4F)ccc1c23 | 65.2
6 | CN1C(=O)c2cc(-c3cnn(C4CC4)c3)cc3c(NS(=O)(=O)c4ccc(Cl)cc4Cl)ccc1c23 | 61.8
7 | CN1C(=O)c2ccnc3c(NS(=O)(=O)c4ccc(Cl)cc4F)ccc1c23 | 87.4

tested on: RAW264.7; experiment: Inhibition of LPS-induced NO overproduction in mouse RAW264.7 cells at 1 uM incubated for 2 hrs followed by LPS stimulation and measured after 22 hrs by Griess reagent based assay relative to control; format: functional; details: not given

Row | Compound | inhibition (INH) [%]
8 | Cc1sc2c(c1C)C(c1ccc(Cl)cc1)=N[C@@H](CC(=O)OC(C)(C)C)c1nnc(C)n1-2 | 47.56

same assay, conditions: Mus musculus, RAW264.7

Row | Compound | inhibition at 1 µM [%]
9 | COc1ccccc1S(=O)(=O)Nc1ccc2c3c(cccc13)C(=O)N2C | 51.4
10 | COc1ccccc1S(=O)(=O)Nc1ccc2c3c(cc(-c4cnn(C)c4)cc13)C(=O)N2C | 102
11 | CCCn1cc(-c2cc3c4c(ccc(NS(=O)(=O)c5ccccc5OC)c4c2)N(C)C3=O)cn1 | 106
12 | COc1ccccc1S(=O)(=O)Nc1ccc2c3c(cc(-c4ccco4)nc13)C(=O)N2C | 64.9
13 | Cc1cc(/N=N/c2ccc(S(=O)(=O)Nc3ccc(C#N)cc3)cc2)cc(C)c1O | 43.4
14 | COc1ccccc1S(=O)(=O)Nc1ccc2c3c(cc(NCCN4CCN(C)CC4)nc13)C(=O)N2C | 39.6
15 | COc1ccccc1S(=O)(=O)Nc1ccc2c3c(cc(N4CCOCC4)nc13)C(=O)N2C | 100
16 | COc1cc(OC)c2c(=O)[nH]c(-c3cc(C)c(OCCO)c(C)c3)nc2c1 [APABETALONE] | 9.17
17 | CN1C(=O)c2cccc3c(NS(=O)(=O)c4ccc(F)cc4Cl)ccc1c23 | 98.1
18 | COc1ccccc1S(=O)(=O)Nc1ccc2c3c(cc(N4CCN(C)CC4)nc13)C(=O)N2C | 92.5
19 | COc1ccccc1S(=O)(=O)Nc1ccc2c3c(cc(-c4ccoc4)nc13)C(=O)N2C | 66.3
20 | COc1ccccc1S(=O)(=O)Nc1ccc2c3c(cc(-c4cnn(C5CC5)c4)cc13)C(=O)N2C | 83.7
21 | COc1ccccc1S(=O)(=O)Nc1ccc2c3c(ccnc13)C(=O)N2C | 94.3
22 | COc1ccccc1S(=O)(=O)Nc1ccc2c3c(cc(NCC4CCN(C)CC4)nc13)C(=O)N2C | 47.2
23 | CN1C(=O)c2cccc3c(NS(=O)(=O)c4ccc(Cl)cc4)ccc1c23 | 15.1

target: T1, Bromodomain-containing protein 4; experiment: Displacement of tetra-acetylated histone H4 peptide (1-21) from recombinant human N-terminal His-tagged BRD4 BD2 (349 to 460 residues) expressed in Escherichia coli incubated for 30 mins followed by further incubation with tetra-acetylated histone H4 peptide (1-21) for 30 mins by Alphascreen assay; details: not given

Row | Compound | IC50 [nM]
24 | COc1ccccc1S(=O)(=O)Nc1ccc2c3c(cc(N4CCC(CO)CC4)nc13)C(=O)N2C | 29600
25 | CN1C(=O)c2ccnc3c(NS(=O)(=O)c4ccc(Cl)cc4)ccc1c23 | 20500
26 | CN1C(=O)c2cccc3c(NS(=O)(=O)c4ccccc4Cl)ccc1c23 | 6050
27 | COc1ccccc1S(=O)(=O)Nc1ccc2c3c(cccc13)C(=O)N2C | 2480
28 | COc1ccccc1S(=O)(=O)Nc1ccc2c3c(cc(NC4CC4)nc13)C(=O)N2C | 660
29 | COc1ccccc1S(=O)(=O)Nc1ccc2c3c(cc(-c4cnn(C)c4)cc13)C(=O)N2C | 435
30 | CCCn1cc(-c2cc3c4c(ccc(NS(=O)(=O)c5ccccc5OC)c4c2)N(C)C3=O)cn1 | 266
31 | COc1ccccc1S(=O)(=O)Nc1ccc2c3c(cc(-c4ccco4)nc13)C(=O)N2C | 982
32 | COc1cc(Cl)ccc1S(=O)(=O)Nc1ccc2c3c(cc(-c4cnn(C5CC5)c4)cc13)C(=O)N2C | 435
33 | CN1C(=O)c2cccc3c(NS(=O)(=O)c4cccnc4)ccc1c23 | 13700
34 | Cc1ccc(S(=O)(=O)Nc2ccc3c4c(cccc24)C(=O)N3C)cc1 | 2280
35 | Cc1cc(/N=N/c2ccc(S(=O)(=O)Nc3ccc(C#N)cc3)cc2)cc(C)c1O | 7070
36 | COc1ccccc1S(=O)(=O)Nc1ccc2c3c(cc(NCCN4CCN(C)CC4)nc13)C(=O)N2C | 1520
37 | COc1ccccc1S(=O)(=O)Nc1ccc2c3c(cc(N4CCOCC4)nc13)C(=O)N2C | 808
38 | CN1C(=O)c2cccc3c(NS(=O)(=O)c4ccc(F)cc4Cl)ccc1c23 | 3830
39 | COc1ccccc1S(=O)(=O)Nc1ccc2c3c(cc(N4CCN(C)CC4)nc13)C(=O)N2C | 2120
40 | COc1ccccc1S(=O)(=O)Nc1ccc2c3c(cc(-c4ccoc4)nc13)C(=O)N2C | 459
41 | COc1ccccc1S(=O)(=O)Nc1ccc2c3c(cc(-c4cnn(C5CC5)c4)cc13)C(=O)N2C | 238
42 | COc1ccccc1S(=O)(=O)Nc1ccc2c3c(ccnc13)C(=O)N2C | 4600
43 | COc1ccccc1S(=O)(=O)Nc1ccc2c3c(cc(NCC4CCN(C)CC4)nc13)C(=O)N2C | 1280
44 | CN1C(=O)c2cccc3c(NS(=O)(=O)c4ccc(Cl)cc4)ccc1c23 | 2720

target: T1, Bromodomain-containing protein 4; experiment: Displacement of tetra-acetylated histone H4 peptide (1-21) from recombinant human N-terminal His-tagged BRD4 BD1 (44 to 170 residues) expressed in Escherichia coli incubated for 30 mins followed by further incubation with tetra-acetylated histone H4 peptide (1-21) for 30 mins by Alphascreen assay; details: not given

Row | Compound | IC50 [nM]
45 | COc1ccccc1S(=O)(=O)Nc1ccc2c3c(cc(N4CCC(CO)CC4)nc13)C(=O)N2C | 169
46 | CN1C(=O)c2ccnc3c(NS(=O)(=O)c4ccc(Cl)cc4)ccc1c23 | 3470
47 | CN1C(=O)c2cccc3c(NS(=O)(=O)c4ccccc4Cl)ccc1c23 | 1530
48 | COc1ccccc1S(=O)(=O)Nc1ccc2c3c(cccc13)C(=O)N2C | 49.5
49 | COc1ccccc1S(=O)(=O)Nc1ccc2c3c(cc(NC4CC4)nc13)C(=O)N2C | 271
50 | COc1ccccc1S(=O)(=O)Nc1ccc2c3c(cc(-c4cnn(C)c4)cc13)C(=O)N2C | 17.4
51 | CCCn1cc(-c2cc3c4c(ccc(NS(=O)(=O)c5ccccc5OC)c4c2)N(C)C3=O)cn1 | 43.7
52 | COc1ccccc1S(=O)(=O)Nc1ccc2c3c(cc(-c4ccco4)nc13)C(=O)N2C | 35.1
53 | COc1cc(Cl)ccc1S(=O)(=O)Nc1ccc2c3c(cc(-c4cnn(C5CC5)c4)cc13)C(=O)N2C | 37.5
54 | CN1C(=O)c2cccc3c(NS(=O)(=O)c4cccnc4)ccc1c23 | 2440
55 | Cc1ccc(S(=O)(=O)Nc2ccc3c4c(cccc24)C(=O)N3C)cc1 | 545
56 | Cc1cc(/N=N/c2ccc(S(=O)(=O)Nc3ccc(C#N)cc3)cc2)cc(C)c1O | 328
57 | COc1ccccc1S(=O)(=O)Nc1ccc2c3c(cc(NCCN4CCN(C)CC4)nc13)C(=O)N2C | 223
58 | COc1ccccc1S(=O)(=O)Nc1ccc2c3c(cc(N4CCOCC4)nc13)C(=O)N2C | 95.2
59 | CN1C(=O)c2cccc3c(NS(=O)(=O)c4ccc(F)cc4Cl)ccc1c23 | 91.3
60 | COc1ccccc1S(=O)(=O)Nc1ccc2c3c(cc(N4CCN(C)CC4)nc13)C(=O)N2C | 100
61 | COc1ccccc1S(=O)(=O)Nc1ccc2c3c(cc(-c4ccoc4)nc13)C(=O)N2C | 37
62 | COc1ccccc1S(=O)(=O)Nc1ccc2c3c(cc(-c4cnn(C5CC5)c4)cc13)C(=O)N2C | 14.4
63 | COc1ccccc1S(=O)(=O)Nc1ccc2c3c(ccnc13)C(=O)N2C | 205
64 | COc1ccccc1S(=O)(=O)Nc1ccc2c3c(cc(NCC4CCN(C)CC4)nc13)C(=O)N2C | 113
65 | CN1C(=O)c2cccc3c(NS(=O)(=O)c4ccc(Cl)cc4)ccc1c23 | 167

target: T1, Bromodomain-containing protein 4; experiment: Binding affinity to recombinant human N-terminal His-tagged BRD4 BD1 (44 to 170 residues) expressed in Escherichia coli assessed as change in melting temperature at 10 uM by SYPRO Orange based differential scanning fluorimetry; details: not given

Row | Compound | ΔTm [°C]
66 | CN1C(=O)c2cccc3c(NS(=O)(=O)c4c(Cl)cccc4Cl)ccc1c23 | 2.75
67 | CN1C(=O)c2ccnc3c(NS(=O)(=O)c4ccc(Cl)cc4)ccc1c23 | 6.53
68 | CN1C(=O)c2cccc3c(NS(=O)(=O)c4ccccc4Cl)ccc1c23 | 5.37
69 | COc1ccccc1S(=O)(=O)Nc1ccc2c3c(cccc13)C(=O)N2C | 8.72
70 | COc1ccccc1S(=O)(=O)N(C)c1ccc2c3c(cccc13)C(=O)N2C | 1.06
71 | CN1C(=O)c2cccc3c(NS(=O)(=O)c4cccnc4)ccc1c23 | 2.3
72 | Cc1ccc(S(=O)(=O)Nc2ccc3c4c(cccc24)C(=O)N3C)cc1 | 7.36
73 | CN1C(=O)c2cccc3c(NS(=O)(=O)c4ccc(F)cc4Cl)ccc1c23 | 6.23
74 | COc1ccccc1S(=O)(=O)Nc1ccc2c3c(ccnc13)C(=O)N2C | 7.64
75 | CN1C(=O)c2cccc3c(NS(=O)(=O)c4ccc(Cl)cc4)ccc1c23 | 6.5
76 | CN1C(=O)c2ccnc3c(NS(=O)(=O)c4ccc(Cl)cc4F)ccc1c23 | 2.31
